Test results reported in patent EP3056202A1, “BENZOPYRROLIDONE DERIVATIVES POSSESSING ANTIVIRAL AND ANTICANCER PROPERTIES” (Max-Planck-Gesellschaft zur Förderung der Wissenschaften …, priority 2015, dated 2016).
Values after ≈ are worked out from the molar mass of the structure shown.

What was measured:
[1] = biological target: human Ack1 kinase (Homo sapiens, UniProt Q07912); assay: In vitro Ack1 assay (TranScreener ADP2 FP, generation of ADP); format: biochemical; conditions: 12.5 uM compound; 3.5 µM ATP; read-out: Ack1 inh% @12.5 uM
Experimental: The activity of the compounds described in the present invention can be determined by the following kinase assay, which measures the generation of ADP by human Ack1 kinase by fluorescent polarization using a commercially available TranScreener ADP2 FP Assay Kit (BellBrook Labs).
Ack1 kinase assays were performed in low protein binding 384-well plates (Corning). Test compounds were diluted in 100% DMSO to 5 mM stock concentration and then further dilutions were made in H2O or 100% DMSO to desirable concentrations.
Each reaction consisted of 5 nM enzyme: Ack1 kinase, Poly Glu-Tyr (4:1) (Sigma), 3.5 µM ATP and kinase buffer: 20 mM HEPES pH7.5, 1 mM DTT, 2 mM MgCl2, 0.4 mM MnCl2, 0.01 V/V% Tween20 (all reagents from Sigma-Aldrich)
For each reaction, 4 or 6 µl containing Poly Glu-Tyr (4:1), ATP and kinase buffer were combined with 2 µl diluted compound in H2O or 0.02 µl compound in 100% DMSO. The kinase reaction was started by the addition of 2 µl diluted enzyme. The reaction was allowed to run for 1 hour at room temperature. The reaction was stopped by addition of 8 µl ADP detection mixture (1 x) (1 x Detection buffer + 4.78 µg/ml ADP2 Ab + 4 nM ADP Alexa633 Tracer). After an additional hour, fluorescent polarization (Ex: 630-35 nm, Em: 680-30 nm, Dich: 650 nm) was measured using an Analyst GT (Molecular Devices).

[2] = test system: HepG2 hepatoblastomaderived cell line; assay: In vitro growth inhibition, HepG2 (CellTiter-Glo); format: cell-based; conditions: Homo sapiens, 72 hours incubation
[3] = physchem; format: physicochemical; conditions: kinetic from dmso stock
Experimental: Samples were diluted in DMSO (control), phosphate buffer pH = 7.4 and pH = 2.0, from 5mM stock solutions (solved in DMSO), with a 120 µM final concentration. The samples were incubated for 24 hours at room temperature followed by 30 minutes centrifugation at 3700 rpm. 40 µl of the supernatants were injected into HPLC (Waters 2795 Alliance HPLC equipped with Waters 996 PDA Detector (HPLC column: Waters XBridge, RP C18, 3.5 µm, 4.6 mm x 50 mm; gradient MeCN/H2O, containing 0.1% HCOOH: 5% MeCN (0.5 min), 5% to 95% MeCN (5 min), 95% MeCN (0.5 min); flow rate: 2.0 ml/min)) and the AUC values (measured on sample specific wavelength) of the buffered samples were divided by the AUC values (same wavelength as buffered samples') of the DMSO control samples. Table 3: Solubility in water for several compounds according to general formula (I)

[4] = test system: HCT-116 human colon carcinoma cell line; assay: In vitro growth inhibition of colon carcinoma cells, HCT-116 (CellTiter-Glo); format: cell-based; conditions: 72 hours incubation, read-out: HCT116 EC50
[5] = biological target: human Akt1 kinase (Homo sapiens, UniProt P31749); assay: In vitro Akt1 assay (IMAP fluorescence polarization, phosphorylation of TAMRA-peptide); format: biochemical; conditions: 40 µM ATP
Experimental: The inhibition of Akt1 by the compounds described in the present invention were determined measuring the phosphorylation of a fluorescently-labeled peptide (TAMRA-peptide) by human Akt1 kinase by fluorescent polarization using a commercially available IMAP Screening Express Assay Kit (Molecular Devices).
Akt1 kinase assays were performed in low protein binding 384-well plates (Corning). Test compounds were diluted in 100% DMSO to 5 mM stock concentration and then further dilutions were made in H2O or 100% DMSO to desirable concentrations.
Each reaction consisted of 5 nM enzyme: Akt1 kinase, 400 nM TAMRA-peptide (5-TAMRA-GRTGRRNSI-COOH; Genecust), 40 µM ATP and kinase buffer: 20 mM MES pH6, 1 mM DTT, 10 mM MgCl2, 2 mM MnCl2, 0.01 V/V% TritonX (all reagents from Sigma-Aldrich).
(§1) For each reaction, 4 or 6 µl containing TAMRA-peptide, ATP and kinase buffer were combined with 2 µl diluted compound in H2O or 0.02 µl compound in 100% DMSO. The kinase reaction was started by the addition of 2 µl diluted enzyme. The reaction was allowed to run for 1 hour at room temperature. The reaction was stopped by adding 15 µl IMAP beads (1:400 beads in progressive (75% buffer A, 25% buffer B) 1x buffer). After an additional hour, fluorescent polarization (Ex: 550-10 nm, Em: 590-10 nm, Dich: 561 nm) was measured using an Analyst GT (Molecular Devices).

[6] = test system: A549 human lung carcinoma cells; assay: Cell-based EC50 determination, A549 cells (CellTiter-Glo cell viability); conditions: A549, 24 h, read-out: A549 EC50 24h
Experimental: A549 human lung carcinoma cells were cultured in RPMI 1640 medium (Sigma) supplemented with 10% fetal bovine serum (Sigma) and Antibiotic-Antimycotic (Sigma) in tissue culture flasks at 37°C in a humidified 5% CO2 atmosphere. Cells were routinely assayed for mycoplasma contamination.
Two thousand cells were plated in 384-well tissue culture plates, and treated after 24 hours with a 10-point dilution series of the compounds (1.5 nM-30 uM), using the vehicle, DMSO as control. Cells were incubated for 24 hours after which the relative cell density was determined by CellTiter-Glo Luminescent Cell Viability Assay (Promega). This method determines the number of metabolically active cells in the culture based on quantitation of the ATP present. The luminescent signal was measured with an Analyst GT multimode reader (Molecular Devices). […]

[7] = biological target: T1, human Clk1 kinase (Homo sapiens, UniProt P49759); assay: In vitro Clk1 assay (IMAP fluorescence polarization); format: biochemical; conditions: 0.45 µM ATP
T1 construct: Each reaction consisted of 4 nM enzyme: Clk1 kinase domain
Experimental: The activity of the compounds described in the present invention can be determined by the following kinase assay, which measures the phosphorylation of a fluorescently-labeled peptide by human Clk1 kinase by fluorescent polarization using a commercially available IMAP Screening Express Assay Kit (Molecular Devices).
Clk1 kinase assays were performed in low protein binding 384-well plates (Corning). Test compounds were diluted in 100% DMSO to 5 mM stock concentration and then further dilutions were made in H2O or 100% DMSO to desirable concentrations.
Each reaction consisted of 4 nM enzyme: Clk1 kinase domain, 400 nM TAMRA-AFRREWSPGKEAKK-NH2 (Genecust), 0.45 µM ATP (Sigma) and kinase buffer: 20 mM TRIS pH 8, 1 mM DTT, 0.4 mM MgCl2, 0.4 mM MnCl2, 0.01 V/V% Tween20 (all reagents from Sigma-Aldrich)
as §1, with “(1:600” for “(1:400”, “(80 %” for “(75%”, “20%” for “25%”

[8] = test system: H1 N1 influenza virus strain A/WSN/33; assay: microbe, parasite or virus in culture; format: cell-based; conditions: 36 h, read-out: Influenza replication IC50
[9] = test system: HKE3 human colon carcinoma cell line; assay: In vitro growth inhibition of colon carcinoma cells, HKE3 (CellTiter-Glo); format: cell-based; conditions: 72 hours incubation

Chain of human Akt1 kinase (P31749 whole entry): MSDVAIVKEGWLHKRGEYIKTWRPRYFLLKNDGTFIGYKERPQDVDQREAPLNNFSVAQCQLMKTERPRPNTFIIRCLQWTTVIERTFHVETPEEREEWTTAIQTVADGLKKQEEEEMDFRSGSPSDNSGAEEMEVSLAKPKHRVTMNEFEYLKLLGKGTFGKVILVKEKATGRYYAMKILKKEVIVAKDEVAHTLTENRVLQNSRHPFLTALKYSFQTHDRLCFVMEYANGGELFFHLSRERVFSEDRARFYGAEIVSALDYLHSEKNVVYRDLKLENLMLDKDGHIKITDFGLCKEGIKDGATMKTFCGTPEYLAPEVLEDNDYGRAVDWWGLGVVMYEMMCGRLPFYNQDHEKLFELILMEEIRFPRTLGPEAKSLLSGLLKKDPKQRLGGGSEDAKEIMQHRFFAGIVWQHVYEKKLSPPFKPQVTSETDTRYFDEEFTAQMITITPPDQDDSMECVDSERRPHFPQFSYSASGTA
Chain of human Ack1 kinase (Q07912 whole entry): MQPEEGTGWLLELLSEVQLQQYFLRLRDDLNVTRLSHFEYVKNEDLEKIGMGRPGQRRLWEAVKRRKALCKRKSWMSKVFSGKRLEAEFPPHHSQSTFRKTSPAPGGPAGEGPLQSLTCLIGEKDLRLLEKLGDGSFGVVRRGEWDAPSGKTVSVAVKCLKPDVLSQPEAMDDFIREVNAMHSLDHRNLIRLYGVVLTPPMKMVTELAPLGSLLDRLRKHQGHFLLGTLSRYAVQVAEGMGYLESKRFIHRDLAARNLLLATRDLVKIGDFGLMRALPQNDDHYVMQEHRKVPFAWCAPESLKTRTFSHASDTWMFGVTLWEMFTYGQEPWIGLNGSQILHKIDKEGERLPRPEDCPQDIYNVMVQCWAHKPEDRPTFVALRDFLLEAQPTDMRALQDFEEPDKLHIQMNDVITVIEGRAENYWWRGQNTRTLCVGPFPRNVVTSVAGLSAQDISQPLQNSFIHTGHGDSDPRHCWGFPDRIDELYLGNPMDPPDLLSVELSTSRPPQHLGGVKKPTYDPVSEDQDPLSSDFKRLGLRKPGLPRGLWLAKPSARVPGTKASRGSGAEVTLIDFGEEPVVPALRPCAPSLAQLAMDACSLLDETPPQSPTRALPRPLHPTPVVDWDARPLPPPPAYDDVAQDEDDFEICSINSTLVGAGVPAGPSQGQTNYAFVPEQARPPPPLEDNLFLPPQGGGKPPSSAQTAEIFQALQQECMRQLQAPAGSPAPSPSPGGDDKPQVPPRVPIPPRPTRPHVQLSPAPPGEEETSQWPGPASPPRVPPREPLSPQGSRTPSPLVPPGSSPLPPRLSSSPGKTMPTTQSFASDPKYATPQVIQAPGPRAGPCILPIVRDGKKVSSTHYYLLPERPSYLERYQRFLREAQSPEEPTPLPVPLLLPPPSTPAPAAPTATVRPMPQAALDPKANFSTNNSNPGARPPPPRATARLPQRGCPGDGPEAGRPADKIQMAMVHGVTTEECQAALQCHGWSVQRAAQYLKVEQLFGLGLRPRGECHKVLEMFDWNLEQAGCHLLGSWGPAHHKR
T1 sequence (P49759 161-477 limits assumed): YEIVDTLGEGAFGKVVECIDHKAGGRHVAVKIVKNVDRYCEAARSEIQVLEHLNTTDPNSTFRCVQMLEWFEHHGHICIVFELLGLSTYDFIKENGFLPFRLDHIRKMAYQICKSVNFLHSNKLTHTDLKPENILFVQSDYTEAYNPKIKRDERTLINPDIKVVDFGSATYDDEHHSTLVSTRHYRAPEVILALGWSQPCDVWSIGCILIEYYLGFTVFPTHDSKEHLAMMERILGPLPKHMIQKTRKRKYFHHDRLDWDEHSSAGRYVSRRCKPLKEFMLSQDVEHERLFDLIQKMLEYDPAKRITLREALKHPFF

Compound: C[C@H](NC(=O)c1ccc2c(c1)/C(=C(/Nc1ccc(CN3CCCCC3)cc1)c1ccccc1)C(=O)N2)c1ccccc1 [Compound 30, (3Z)-2-oxo-N-[(1S)-1-phenylethyl]-3-(phenyl{[4-(piperidin-1-ylmethyl)phenyl]amino}methylene)indoline-5-carboxamide]
- inhibition at 12.5 µM [1]: 80.5%
- EC50 [2]: 580 nM
- solubility at 24 h ([3]; pH 2, aqueous buffer): 110 to 120 µM (≈ 61.2 to 66.8 µg/mL)
- solubility at 24 h ([3]; pH 7.4, aqueous buffer): < 10 µM
- EC50 [4]: 10 nM
- inhibition at 12.5 µM ([5]; 12.5 uM compound, read-out: Akt1 inh% @12.5 uM): 93%
- IC50 [5]: 1300 nM
- EC50 [6]: 5.98 µM
- IC50 [7]: 10 nM
- IC50 [8]: < 10 nM
- EC50 [9]: 10 nM
